Test results from ChEMBL document CHEMBL5608212, “N-acylbenzimidazoles as selective Acylators of the catalytic cystein of the coronavirus 3CL protease” (Eur J Med Chem, 2024).
Where “and” joins values, the source holds several entries; their conditions need not be identical. Identical values can stand only once. Calls of active or inactive are those of the source. The calls are words filed in the database; no cut-off is given here.

Columns and labels:
[1] = molecular target: T1, Replicase polyprotein 1ab (Severe acute respiratory syndrome coronavirus 2, UniProt P0DTD1); assay: Inhibition of SARS-CoV-2 3CLpro using Dabcyl-KTSAVLQSGFRKM-Glu(Edans) as substrate preincubated for 1 hrs in presence of 2 mM GSH followed by substrate addition and measured after 30 mins by FRET assay
[2] = Inhibition of MERS-CoV 3CLpro using Dabcyl-KTSAVLQSGFRKM-Glu(Edans) as substrate preincubated 1 hr in presence of 2 mM GSH followed by substrate addition and measured after 30 mins by FRET assay; parameters: species or system Middle East respiratory syndrome-related coronavirus
[3] = Inhibition of C-terminal 6-His tagged recombinant SARS-CoV 3CLpro (Ser1 to Gln306 residues) extracted from Escherichia coli using Dabcyl-KTSAVLQSGFRKM-Glu(Edans) as substrate preincubated 1 hr in presence of 2 mM GSH followed by substrate addition and measured after 30 mins by FRET assay; parameters: species or system Severe acute respiratory syndrome-related coronavirus
[4] = Inhibition of human cathepsin 1 using QXL520/HiLyteFlour 488 as substrate preincubated for 60 mins and measured after 30 mins by fluorescence based assay
[5] = molecular target: Replicase polyprotein 1ab (Severe acute respiratory syndrome coronavirus 2) (UniProt P0DTD1); assay: Reversible inhibition of SARS-CoV-2 3CLpro using Dabcyl-KTSAVLQSGFRKM-Glu(Edans) as substrate at 10 times IC50 preincubated for 1 hr followed by 100-fold dilution to 0.1 times IC50 with substrate solution by jump dilution assay
[6] = molecular target: T2, Calpain-1 catalytic subunit (Homo sapiens, UniProt P07384); assay: Inhibition of human calpain 1 using (DABCYL)-TPLKSPPPSPR-(EDANS) as substrate incubated for 30 mins in presence of calcium ions and GSH and measured after 30 mins by fluorescence based assay
T2 sequence (P07384 whole entry): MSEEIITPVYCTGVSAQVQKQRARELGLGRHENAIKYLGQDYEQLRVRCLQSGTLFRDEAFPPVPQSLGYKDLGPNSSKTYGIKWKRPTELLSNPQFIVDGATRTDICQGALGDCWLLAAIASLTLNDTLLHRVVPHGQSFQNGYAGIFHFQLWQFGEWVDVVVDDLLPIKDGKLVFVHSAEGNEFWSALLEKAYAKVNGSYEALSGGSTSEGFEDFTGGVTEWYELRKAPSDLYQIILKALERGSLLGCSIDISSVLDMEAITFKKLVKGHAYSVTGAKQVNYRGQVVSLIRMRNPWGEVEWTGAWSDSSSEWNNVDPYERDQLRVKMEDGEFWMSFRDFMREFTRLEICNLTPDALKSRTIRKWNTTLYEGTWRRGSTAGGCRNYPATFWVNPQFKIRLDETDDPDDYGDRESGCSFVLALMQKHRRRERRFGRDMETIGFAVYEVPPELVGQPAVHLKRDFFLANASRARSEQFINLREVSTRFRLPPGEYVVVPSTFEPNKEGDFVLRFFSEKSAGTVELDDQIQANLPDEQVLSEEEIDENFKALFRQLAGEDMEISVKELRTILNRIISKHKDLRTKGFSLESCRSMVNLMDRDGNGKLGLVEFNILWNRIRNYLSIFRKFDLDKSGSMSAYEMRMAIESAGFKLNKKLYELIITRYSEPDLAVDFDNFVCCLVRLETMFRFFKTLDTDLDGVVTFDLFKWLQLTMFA

[7] = GSH reactivity in HEPES buffer at pH 7.4 assessed as half life at 1 uM; format: ADME; settings: glutathione (GSH) in HEPES buffer
[8] = tested on: SARS-CoV-2; assay: microbe, parasite or virus in culture; settings: Severe acute respiratory syndrome coronavirus 2, Vero
[9] = molecular target: T1, Replicase polyprotein 1ab; assay: Inhibition of SARS-CoV-2 3CLpro using Dabcyl-KTSAVLQSGFRKM-Glu(Edans) as substrate preincubated for 60 mins in presence of GSH followed by substrate addition and measured after 30 mins by FRET assay
[10] = tested on: Human coronavirus 229E; assay: Antiviral activity against HCoV-229E expressing renilla luciferase reporter gene infected in human Huh-7 cells pre-infected […] for 1 hr followed by compound addition and measured after 6 hrs by luciferase based assay; format: functional, organism-based
[11] = molecular target: Replicase polyprotein 1ab (Human coronavirus 229E, UniProt P0C6X1); assay: Inhibition of hCoV-229E 3CLpro using Dabcyl-KTSAVLQSGFRKM-Glu(Edans) as substrate preincubated 1 hr in presence of 2 mM GSH followed by substrate addition and measured after 30 mins by FRET assay
[12] = molecular target: T1, Replicase polyprotein 1ab; assay: Inhibition of SARS-CoV-2 3CLpro using Dabcyl-KTSAVLQSGFRKM-Glu(Edans) as substrate preincubated for 60 mins in absence of GSH followed by substrate addition and measured after 30 mins by FRET assay
[13] = molecular target: Replicase polyprotein 1ab (Severe acute respiratory syndrome coronavirus 2) (UniProt P0DTD1); assay: Inhibition of SARS-CoV-2 3CLpro using Dabcyl-KTSAVLQSGFRKM-Glu(Edans) as substrate at 100 uM preincubated for 1 hrs in presence of 2 mM GSH followed by substrate addition and measured after 30 mins by FRET assay relative to control; settings: time 1.5 hrs
[14] = molecular target: Replicase polyprotein 1ab (Severe acute respiratory syndrome coronavirus 2) (UniProt P0DTD1); assay: Binding affinity to SARS-CoV-2 3CLpro assessed as change in melting temperature at 40 uM measured after 30 mins by SYPRO Orange staining based thermal shift assay
[15] = molecular target: Replicase polyprotein 1ab (Severe acute respiratory syndrome coronavirus 2) (UniProt P0DTD1); assay: Binding affinity to 2H,15N-labelled SARS-CoV-2 3CLpro substrate binding pocket assessed as chemical shift perturbations at interface of domains I and II at 500 uM by 2D 1H,15N-HSQC NMR analysis
[16] = molecular target: T1, Replicase polyprotein 1ab; assay: Inhibition of SARS-CoV-2 3CLpro using Dabcyl-KTSAVLQSGFRKM-Glu(Edans) as substrate preincubated for 30 mins followed by substrate addition and measured after 30 mins by FRET assay

Replicase polyprotein 1ab (Human coronavirus 229E, UniProt P0C6X1), sequence (P0C6X1 2966-3267 limits assumed): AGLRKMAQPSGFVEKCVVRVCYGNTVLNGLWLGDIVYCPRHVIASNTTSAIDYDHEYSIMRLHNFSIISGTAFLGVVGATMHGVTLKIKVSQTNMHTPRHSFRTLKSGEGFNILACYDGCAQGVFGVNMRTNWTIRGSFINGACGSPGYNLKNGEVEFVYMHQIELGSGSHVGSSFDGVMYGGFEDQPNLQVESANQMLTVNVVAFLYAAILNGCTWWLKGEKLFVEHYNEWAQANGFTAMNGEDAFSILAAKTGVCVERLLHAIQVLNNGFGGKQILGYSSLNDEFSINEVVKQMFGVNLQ

SMILES: Cc1ccc(C(=O)n2cnc3ccccc32)cc1
- IC50 ([1]; read-out: IC50): 6700 nM and 6660 nM

SMILES: CC(C)C[C@H](NC(=O)OCc1ccccc1)C(=O)N[C@@H](CC1CCNC1=O)C(O)S(=O)(=O)O (stereo partly drawn)
- IC50 [2]: 340 nM
- pIC50 [2]: 6.47
- IC50 [3]: 50 nM
- pIC50 [3]: 7.33
- IC50 [4]: 1 nM

SMILES: CSc1nc2ccccc2n1C(=O)c1ccccc1
- IC50 ([1]; read-out: IC50): 2500 nM

SMILES: CSc1nc2cc3c(cc2n1C(=O)c1ccc(C)cc1)OCO3
- IC50 [2]: 990 nM
- pIC50 [2]: 6.01
- inhibition [5]: Active
- IC50 [6]: > 100000 nM
- IC50 [3]: 150 nM
- pIC50 [3]: 6.82
- half-life at 1 µM [7]: 16 min
- IC50 ([1]; read-out: IC50): 70 nM
- EC50 [8]: 3100 nM
- IC50 ([9]; read-out: pIC50 (converted)): 120 nM
- EC50 [10]: 4800 nM
- IC50 [4]: > 100000 nM
- IC50 [11]: 750 nM
- IC50 ([12]; read-out: pIC50 (converted)): 85.1 nM

SMILES: CSc1nc2ccccc2n1C(C)=O
- pIC50 [1]: < 4
- IC50 ([1]; read-out: IC50): > 100000 nM

SMILES: CSc1nc2ccccc2n1C(=O)c1ccccc1C
- pIC50 [1]: < 4
- IC50 ([1]; read-out: IC50): > 100000 nM

SMILES: CSc1nc2cc(C)c(C)cc2n1C(=O)c1ccc(C)cc1
- inhibition [13]: 68%

SMILES: CSc1nc2ccccc2n1C(=O)c1ccccc1C(F)(F)F
- pIC50 [1]: < 4
- IC50 ([1]; read-out: IC50): > 100000 nM

SMILES: CSc1nc2ccccc2n1C(=O)NCc1ccc(C)cc1
- pIC50 [1]: < 4
- IC50 ([1]; read-out: IC50): > 100000 nM

SMILES: CSc1nc2ccccc2n1Cc1ccc(C)cc1
- pIC50 [1]: < 4
- IC50 ([1]; read-out: IC50): > 100000 nM

SMILES: CSc1nc2ccccc2n1C(=O)c1ccsc1
- IC50 ([1]; read-out: IC50): 2400 nM

SMILES: COc1cc2nc(SC)n(C(=O)c3ccc(C)cc3)c2cc1OC
- IC50 ([1]; read-out: IC50): 6800 nM

SMILES: Cc1ccc(C(=O)n2c(C)nc3ccccc32)cc1F
- IC50 [2]: 2800 nM
- pIC50 [2]: 5.56
- IC50 [6]: > 100000 nM
- IC50 [3]: 210 nM
- pIC50 [3]: 6.67
- IC50 ([1]; read-out: IC50): 150 nM
- EC50 [10]: 25400 nM
- IC50 [4]: > 100000 nM
- IC50 [11]: 2600 nM

SMILES: COc1nc2ccccc2n1C(=O)c1ccc(C)cc1
- pIC50 [1]: < 4
- IC50 ([1]; read-out: IC50): > 100000 nM

SMILES: Cc1ccc(C(=O)n2ncc3ccccc32)cc1
- pIC50 [1]: < 4
- IC50 ([1]; read-out: IC50): > 100000 nM

SMILES: CSc1nc2ccccc2n1C(=O)c1ccc(C)cc1
- IC50 [2]: 5000 nM
- pIC50 [2]: 5.3
- IC50 [6]: > 100000 nM
- IC50 [3]: 1600 nM
- pIC50 [3]: 5.81
- ΔTm [14]: 4.2 °C
- IC50 ([1]; read-out: IC50): 390 nM
- IC50 [4]: > 100000 nM
- IC50 [11]: 1900 nM

SMILES: COc1ccc(C(=O)n2c(SC)nc3ccccc32)cc1OC
- IC50 ([1]; read-out: IC50): 4000 nM

SMILES: CSc1nc2ccccc2n1C(=O)c1ccc(C(F)(F)F)cc1
- IC50 ([1]; read-out: IC50): 2720 nM

SMILES: Cc1ccc(C(=O)n2c(C)nc3cc4c(cc32)OCCO4)cc1
- IC50 ([1]; read-out: IC50): 7500 nM

SMILES: CSc1nc2ccccc2n1C(=O)c1ccc(F)cc1
- IC50 ([1]; read-out: IC50): 3800 nM

SMILES: CSc1nc2cc3c(cc2n1C(=O)c1ccc(C)cc1)OCCO3
- IC50 [2]: 2500 nM
- pIC50 [2]: 5.6
- IC50 [6]: > 100000 nM
- IC50 [3]: 1700 nM
- pIC50 [3]: 5.77
- ΔTm [14]: 1.47 °C
- Activity [15]: Active
- IC50 ([1]; read-out: IC50): 140 nM
- IC50 ([9]; read-out: IC50): 390 nM
- EC50 [10]: 7300 nM
- IC50 [4]: > 100000 nM
- IC50 [11]: 190 nM
- IC50 [16]: 140 nM
- IC50 ([12]; read-out: IC50): 380 nM

SMILES: CSc1nc2ccccc2n1C(=O)Cc1ccccc1
- pIC50 [1]: < 4
- IC50 ([1]; read-out: IC50): > 100000 nM

SMILES: CSc1nc2ccccc2n1S(=O)(=O)c1ccc(C)cc1
- pIC50 [1]: < 4
- IC50 ([1]; read-out: IC50): > 100000 nM

SMILES: Cc1ccc(C(=O)n2ccc3ccccc32)cc1
- pIC50 [1]: < 4
- IC50 ([1]; read-out: IC50): > 100000 nM

SMILES: Cc1ccc(C(=O)n2c(S)nc3ccccc32)cc1
- pIC50 [1]: < 4
- IC50 ([1]; read-out: IC50): > 100000 nM

SMILES: Cc1ccc(C(=O)n2c(Cl)nc3ccccc32)cc1
- inhibition [13]: 61%

SMILES: CSc1nc2ccc(Cl)cc2n1C(=O)c1ccc(C)cc1
- IC50 ([1]; read-out: IC50): 890 nM
- IC50 ([1]; read-out: pIC50 (converted)): 269 nM

SMILES: CSc1nc2ccccc2n1C(=O)c1ccc2c(c1)OCCO2
- IC50 ([1]; read-out: IC50): 1000 nM

SMILES: COc1cc(C(=O)n2c(SC)nc3ccccc32)ccc1C
- IC50 ([1]; read-out: IC50): 660 nM

SMILES: Cc1ccc(C(=O)n2c(C(F)(F)F)nc3ccccc32)cc1
- IC50 ([1]; read-out: IC50): 17000 nM
